Values joined by “and” are separate entries in the source; they are usually repeats but may differ in a detail not shown here. Equal values may be shown once.
Conditions: 283.14 K, Liquid, Vibrating tube method

CCCCCCC(=O)OCC(COC(=O)CCCCCC)(COC(=O)CCCCCC)COC(=O)CCCCCC [pentaerythritol tetraheptanoate]
Conditions	mass density
99.9 kPa	986 kg/m3
100.4 kPa	985.9 kg/m3 and 986 kg/m3
100.6 kPa	985.8 kg/m3
100.8 kPa	985.9 kg/m3
100.9 kPa	985.9 kg/m3
104.1 kPa	985.9 kg/m3
108.1 kPa	985.9 kg/m3
116.6 kPa	986 kg/m3
124.9 kPa	986 kg/m3
130.8 kPa	986 kg/m3
135.4 kPa	985.9 kg/m3
142 kPa	985.9 kg/m3
146.3 kPa	986 kg/m3
150.6 kPa	986 kg/m3
154.5 kPa	986 kg/m3
158.5 kPa	986 kg/m3
164.2 kPa	986 kg/m3
168.9 kPa	985.9 kg/m3
174.6 kPa	986 kg/m3
181.1 kPa	986 kg/m3
189.8 kPa	986 kg/m3
198.1 kPa	986 kg/m3
208.7 kPa	986 kg/m3
218.8 kPa	986 kg/m3
231 kPa	985.9 kg/m3
246.9 kPa	986 kg/m3
262.2 kPa	986 kg/m3
279.6 kPa	985.9 kg/m3
304.3 kPa	985.9 kg/m3
328.1 kPa	986 kg/m3
354.9 kPa	986 kg/m3
383.4 kPa	986.2 kg/m3
410.5 kPa	986.1 kg/m3
428.6 kPa	986.2 kg/m3
445.6 kPa	986.1 kg/m3
459.5 kPa	986.2 kg/m3
470.3 kPa	986.1 kg/m3
483.1 kPa	986.2 kg/m3
493.7 kPa	986.2 kg/m3
504.3 kPa	986.1 kg/m3
518.6 kPa	986.2 kg/m3
531.3 kPa	986.2 kg/m3
543.6 kPa	986.2 kg/m3
560.1 kPa	986.2 kg/m3
574.5 kPa	986.2 kg/m3
588.8 kPa	986.2 kg/m3
607.2 kPa	986.2 kg/m3
623.7 kPa	986.2 kg/m3
641.4 kPa	986.2 kg/m3
659.1 kPa	986.3 kg/m3
682.8 kPa	986.3 kg/m3
703.5 kPa	986.3 kg/m3
725 kPa	986.2 kg/m3
748.3 kPa	986.2 kg/m3
777.3 kPa	986.4 kg/m3
803.3 kPa	986.3 kg/m3
830.4 kPa	986.3 kg/m3
857.2 kPa	986.4 kg/m3
881.9 kPa	986.4 kg/m3
894.4 kPa	986.4 kg/m3
910.2 kPa	986.5 kg/m3
922.9 kPa	986.5 kg/m3
936.1 kPa	986.4 kg/m3
950.3 kPa	986.3 kg/m3
964.4 kPa	986.4 kg/m3
981.7 kPa	986.3 kg/m3
997.4 kPa	986.4 kg/m3
1013.2 kPa	986.5 kg/m3
1029.5 kPa	986.4 kg/m3
1046.2 kPa	986.4 kg/m3
1066 kPa	986.6 kg/m3
1084 kPa	986.4 kg/m3
1102.6 kPa	986.5 kg/m3
1119.8 kPa	986.5 kg/m3
1142.7 kPa	986.6 kg/m3
1162 kPa	986.6 kg/m3
1186.3 kPa	986.5 kg/m3
1207.3 kPa	986.5 kg/m3
1229.4 kPa	986.6 kg/m3
1252.5 kPa	986.5 kg/m3
1277.3 kPa	986.7 kg/m3
1301.1 kPa	986.6 kg/m3
1329.6 kPa	986.7 kg/m3
1354.8 kPa	986.6 kg/m3
1386.2 kPa	986.6 kg/m3
1412.2 kPa	986.7 kg/m3
1440.9 kPa	986.6 kg/m3
1469.5 kPa	986.6 kg/m3
1505.1 kPa	986.6 kg/m3
1536 kPa	986.8 kg/m3
1568.8 kPa	986.7 kg/m3
1609.6 kPa	986.8 kg/m3
1645.7 kPa	986.8 kg/m3
1682.5 kPa	986.8 kg/m3
1719 kPa	986.8 kg/m3
1765.3 kPa	986.9 kg/m3
1804.9 kPa	986.9 kg/m3
1848.1 kPa	986.9 kg/m3
1898.4 kPa	986.8 kg/m3
1940.3 kPa	987 kg/m3
1966.1 kPa	986.9 kg/m3
1976.7 kPa	987 kg/m3
1988.3 kPa	987.1 kg/m3
2001 kPa	987 kg/m3
2021 kPa	987 kg/m3
2110 kPa	987 kg/m3
2201.2 kPa	987.1 kg/m3
2343.8 kPa	987.2 kg/m3
2462.5 kPa	987.4 kg/m3
2487.8 kPa	987.3 kg/m3
2506.9 kPa	987.3 kg/m3
2521.6 kPa	987.2 kg/m3
2536.4 kPa	987.3 kg/m3
2553.4 kPa	987.3 kg/m3
2568.1 kPa	987.2 kg/m3
2582.9 kPa	987.4 kg/m3
2600 kPa	987.4 kg/m3
2614.3 kPa	987.4 kg/m3
2628.5 kPa	987.3 kg/m3
2642.2 kPa	987.3 kg/m3
2656.6 kPa	987.4 kg/m3
2675.1 kPa	987.4 kg/m3
2688.8 kPa	987.5 kg/m3
2704.6 kPa	987.4 kg/m3
2719.9 kPa	987.5 kg/m3
2736 kPa	987.6 kg/m3
2751.8 kPa	987.5 kg/m3
2766.5 kPa	987.5 kg/m3
2800.3 kPa	987.5 kg/m3
2816.5 kPa	987.5 kg/m3
2832.1 kPa	987.5 kg/m3
2851.8 kPa	987.5 kg/m3
2867.8 kPa	987.5 kg/m3
2885.5 kPa	987.5 kg/m3
2902.1 kPa	987.6 kg/m3
2918.6 kPa	987.6 kg/m3
2935.2 kPa	987.6 kg/m3
2954.3 kPa	987.6 kg/m3
2972 kPa	987.8 kg/m3
2987.9 kPa	987.4 kg/m3
3008.9 kPa	987.6 kg/m3
3025.6 kPa	987.6 kg/m3
3043.9 kPa	987.6 kg/m3
3062.1 kPa	987.7 kg/m3
3082.8 kPa	987.8 kg/m3
3101.3 kPa	987.7 kg/m3
3118.5 kPa	987.7 kg/m3
3140.8 kPa	987.7 kg/m3
3158.5 kPa	987.7 kg/m3
3176.4 kPa	987.8 kg/m3
3198.6 kPa	987.7 kg/m3
3218.2 kPa	987.7 kg/m3
3237.6 kPa	987.8 kg/m3
3256.6 kPa	987.8 kg/m3
3279 kPa	987.8 kg/m3
3300 kPa	987.8 kg/m3
3320.3 kPa	987.7 kg/m3
3339.7 kPa	987.8 kg/m3
3362.4 kPa	987.8 kg/m3
3382.2 kPa	987.9 kg/m3
3402.9 kPa	987.8 kg/m3
3422.4 kPa	987.9 kg/m3
3448.4 kPa	987.9 kg/m3
3468.1 kPa	987.9 kg/m3
3488.6 kPa	987.9 kg/m3
3515.4 kPa	987.8 kg/m3
3535.7 kPa	988 kg/m3
3561.2 kPa	987.9 kg/m3
3584.9 kPa	987.9 kg/m3
3606.2 kPa	987.9 kg/m3
3628.7 kPa	988 kg/m3
3652.3 kPa	987.9 kg/m3
3675 kPa	988 kg/m3
3703.2 kPa	988 kg/m3
3725.9 kPa	988 kg/m3
3750.4 kPa	988.1 kg/m3
3777.7 kPa	988.1 kg/m3
3800.4 kPa	988.1 kg/m3
3825.2 kPa	988 kg/m3
3853.3 kPa	988 kg/m3
3879.1 kPa	988 kg/m3
3903.5 kPa	988 kg/m3
3929.1 kPa	988.2 kg/m3
3959.3 kPa	988.2 kg/m3
3983.7 kPa	988.1 kg/m3
4010 kPa	988.4 kg/m3
4036.2 kPa	988.2 kg/m3
4066.7 kPa	988.2 kg/m3
4093.2 kPa	988.2 kg/m3
4121.2 kPa	988.2 kg/m3
4152.6 kPa	988.3 kg/m3
4181.1 kPa	988.3 kg/m3
4209.5 kPa	988.3 kg/m3
4236.7 kPa	988.3 kg/m3
4257.5 kPa	988.4 kg/m3
4379.6 kPa	988.4 kg/m3
4380.1 kPa	988.4 kg/m3
4380.5 kPa	988.4 kg/m3
4380.8 kPa	988.4 kg/m3
4381 kPa	988.4 kg/m3
4381.5 kPa	988.3 kg/m3
4381.9 kPa	988.6 kg/m3
4382.2 kPa	988.4 kg/m3
4382.4 kPa	988.4 kg/m3
4382.6 kPa	988.3 kg/m3 and 988.5 kg/m3
4382.7 kPa	988.4 kg/m3
4382.9 kPa	988.4 kg/m3 and 988.5 kg/m3
4383.1 kPa	988.4 kg/m3
4383.2 kPa	988.3 kg/m3 and 988.4 kg/m3
4383.4 kPa	988.5 kg/m3 and 988.4 kg/m3
4383.6 kPa	988.3 kg/m3 and 988.4 kg/m3 and 988.5 kg/m3
4383.8 kPa	988.5 kg/m3 and 988.4 kg/m3
4383.9 kPa	988.4 kg/m3 and 988.5 kg/m3 and 988.3 kg/m3
4384.1 kPa	988.4 kg/m3 [middle of 5 runs]
4384.3 kPa	988.4 kg/m3 and 988.5 kg/m3 and 988.3 kg/m3
4384.5 kPa	988.4 kg/m3 and 988.5 kg/m3 and 988.3 kg/m3
4384.6 kPa	988.5 kg/m3 and 988.4 kg/m3
4384.8 kPa	988.4 kg/m3 and 988.3 kg/m3
4385 kPa	988.4 kg/m3 and 988.3 kg/m3 and 988.5 kg/m3
4385.1 kPa	988.4 kg/m3 and 988.3 kg/m3 and 988.5 kg/m3
4385.3 kPa	988.4 kg/m3 and 988.5 kg/m3
4385.4 kPa	988.4 kg/m3
4385.5 kPa	988.4 kg/m3 and 988.3 kg/m3

Reference: the NIST ThermoML archive (doi:10.1021/je060271a)
